# In patent US4983622A, “6-substituted-4-dialkylaminotetrahydrobenz(c,d)indoles” (Eli Lilly and Company, priority 1985, dated 1991):
# Tests used:
# [1] = test system: dopamine uptake, bovine striatal membrane; conditions: in vitro; cited from earlier work
# [2] = test system: serum corticosteroids; assay: Serum corticosterone; type: in vivo, Wistar rats; conditions: 0.3 mg/kg s.c., 1 hour; control 7 ± 1; * statistically significant
# Protocol: (§1) The following protocol was employed. 150-200 g. Wistar rats were given 0.3 mg/kg subcutaneously of (±)-4-di-n-propylamino-6-substituted-1,3,4,5-tetrahydrobenz[c,d]indole.Then, 60 minutes later each rat was decapitated and the hypothalamus and striatum were dissected out and extracted. The amounts of homovanillic acid (HVA) and 3,4-dihydroxyphenylacetic acid (DOPAC) in the striatum and of 5-hydroxyindoleacetic acid (5HIAA) in the hypothalamus were measured by high-performance liquid chromatography, using electrochemical detection. Serum corticosteroids were also measured. In the table, columns 1 and 2 give the substitution pattern in the compounds of formula IV, columns 3-5, the 5HT or dopamine metabolite concentrations, and column 6, the serum corticosteroids.
# (§2) Compounds were injected at 0.3 mg/kg s.c. 1 hour before rats were killed.
# [3] = biological target: ^3 H-serotonin (^3 H-5HT) receptor binding, rat cerebral cortex membranes; assay: Receptor binding, inhibition of specific ^3 H-5HT (tritiated serotonin) binding; design: species or system male Wistar rats; conditions: 15 min at 37°, pH 7.4, 2-3 nM ^3 H-serotonin, read-out: ^3 H-Ligand-IC50, ^3 H-5HT
# [4] = biological target: T1, ^3 H-spiperone receptor binding, rat cerebral cortex membranes (Rattus norvegicus, UniProt P14842); assay: Receptor binding, inhibition of specific ^3 H-spiperone binding; design: species or system male Wistar rats; conditions: 15 min at 37°, pH 7.4, 0.6-0.7 nM ^3 H-spiperone, read-out: ^3 H-Ligand-IC50, ^3 H-SPIP
# T1 construct: The cerebral cortex was dissected out and then homogenized and centrifuged; from tissue; host or cells: cerebral cortex membranes of male Wistar rats
# T1 sequence (P14842 whole entry): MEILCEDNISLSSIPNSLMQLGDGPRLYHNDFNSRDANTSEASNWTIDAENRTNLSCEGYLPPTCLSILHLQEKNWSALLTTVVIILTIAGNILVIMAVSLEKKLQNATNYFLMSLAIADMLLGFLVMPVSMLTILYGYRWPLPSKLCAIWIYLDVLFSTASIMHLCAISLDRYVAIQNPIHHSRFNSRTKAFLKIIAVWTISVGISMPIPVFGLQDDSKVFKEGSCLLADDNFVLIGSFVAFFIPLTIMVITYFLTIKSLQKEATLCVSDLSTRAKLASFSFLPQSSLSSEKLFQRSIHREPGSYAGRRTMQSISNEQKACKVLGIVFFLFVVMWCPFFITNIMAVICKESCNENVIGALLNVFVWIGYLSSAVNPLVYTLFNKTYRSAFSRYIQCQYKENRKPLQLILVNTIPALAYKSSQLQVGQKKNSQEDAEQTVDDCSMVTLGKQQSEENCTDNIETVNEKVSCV
# Protocol: The cerebral cortex was dissected out and then homogenized and centrifuged according to the method described by Nelson and coworkers Mol. Pharmacol., 14, 983-995 (1978), using preincubation in buffer without added monoamine oxidase inhibitor in order to eliminate endogenous serotonin. For receptor binding, each sample contained 300-400 μg. of membrane protein and 10 μM pargyline in addition to the ^3 H-ligand in 1 ml. of 0.05 M Tris buffer, pH=7.4. The assay of serotonin binding was done following the method of Bennett and Snyder, Mol. Pharmacol., 12, 373-389 (1976), and that for tritiated spiperone according to Peroutka and Snyder, Mol. Pharmacol. 16 687-699 (1979). The samples were incubated for 15 minutes at 37° and were then filtered through GF/C glass fiber filter pads using a Brandel M-24 cell harvester modified for receptor binding. After two 5 ml. rinses, the filter discs were put into scintillation vials and counted in 10 ml. of Amersham PCS scintillation fluid. Nonspecific binding of ^3 H-serotonin (^3 H-5HT) was determined in the presence of 10^-5 M serotonin and of ^3 H-spiperone in the presence of 10^-6 M LSD. Specific binding was calculated as the difference between total binding with no added nonradioactive compound and the nonspecific binding.
# [5] = test system: serotonin metabolites in brain (5HIAA in hypothalamus); assay: Decrease of serotonin metabolite (5HIAA) in hypothalamus; type: in vivo, Wistar rats; conditions: 0.3 mg/kg s.c., 1 hour; control 2.59 ± .11; * statistically significant
# Protocol: (§3) Secondly, as a measure of central serotonin agonist activity, the decrease of serotonin metabolites in brain was measured. Also the measure of dopamine agonist activity was indicated by changes in dopamine metabolites.
# as §1, §2
# [6] = test system: serotonin turnover in brain (5-HTP accumulation); assay: 5-HTP accumulation in hypothalamus after decarboxylase block by m-hydroxybenzylhydrazine (serotonin turnover); type: in vivo, Wistar rats
# Protocol: Thirdly, as a measure of central serotonin agonist activity, the test rats received (±)-4-di-n-propylamino-6-methoxy-1,3,4,5-tetrahydrobenz[c,d]indole. The decrease of serotonin turnover in brain was measured as a function of 5-hydroxytryptophane (5-HTP) accumulation when the decarboxylation of 5-HTP is blocked by m-hydroxybenzylhydrazine, using the above protocol, except that thirty minutes after injection of the drug, m-hydroxybenzylhydrazine was injected at 100 mg./kg. i.p. Then, 40 minutes later each rat was decapitated, the hypothalamus dissected out and extracted. The amount of 5-HTP in each extract were measured by high-performance liquid chromatography, using electrochemical detection. In normal rats, 5-HTP brain levels are so low as to be virtually undetectable. Thus, the control group received the same dose of m-hydroxybenzylhydrazine as the test rats but no drug.
# [7] = test system: dopamine metabolites in striatum; assay: Changes in dopamine metabolites (DOPAC, HVA) in striatum; type: in vivo, Wistar rats; conditions: 0.3 mg/kg s.c., 1 hour, * statistically significant; for Dopamine Metabolites In Striatum, HVA: control 4.24 ± .27; for Dopamine Metabolites In Striatum, DOPAC: control 5.58 ± .38
# Protocol: as §3, §1, §2
# [8] = test system: serotonin; conditions: Harris and Uhle; cited from earlier work
SMILES,"selective dopamine agonist, action in inhibiting dopamine uptake [1]",Serum Corticosterone [2] [MCG/100 ML],IC50 [3] [nM],IC50 [4] [nM],5HIAA In Hypothalamus [5],"5HTP Level in Nanomoles of Hypothalamus ± S.E. ([6]; 0.03 mg/kg, m-hydroxybenzylhydrazine 100 mg/kg i.p., zero dose 1.81 ± 0.11) [Nanomoles]","5HTP Level in Nanomoles of Hypothalamus ± S.E. ([6]; 0.10 mg/kg, m-hydroxybenzylhydrazine 100 mg/kg i.p., zero dose 1.81 ± 0.11, * P < .05) [Nanomoles]","5HTP Level in Nanomoles of Hypothalamus ± S.E. ([6]; 0.30 mg/kg, m-hydroxybenzylhydrazine 100 mg/kg i.p., zero dose 1.81 ± 0.11, * P < .05) [Nanomoles]","5HTP accumulation ([6]; certain dose levels, hypothalamus)","5HTP Level in Nanomoles of Hypothalamus ± S.E. ([6]; ip, 0.01 mg/kg) [Nanomoles]","Dopamine Metabolites In Striatum, HVA [7]","Dopamine Metabolites In Striatum, DOPAC [7]",serotonin antagonism [8]
"CCCN(CCC)C1Cc2cccc3[nH]cc(c23)C1 (racemic) [(±)-4-di-n-propylamino-1,3,4-5-tetrahydrobenz[c,d]indole]",selective dopamine agonist,,,,,,,,,,,,
"CCCN(CCC)C1Cc2c[nH]c3ccc(OC)c(c23)C1 (racemic) [(±)-4-di-n-propylamino-6-methoxy-1,3,4,5-tetrahydrobenz[c,d]indole]",,48 ± 2,50,950,1.51 ± .05 NMoles/G,1.72 ± 0.07,1.16 ± 0.05,0.97 ± 0.03,significantly decreased 5HTP accumulation,1.85 ± 0.06,2.43 ± .18 NMoles/G,4.61 ± .10 NMoles/G,
"COc1ccc2[nH]cc3c2c1CC(N(C)C)C3 (racemic) [(±)-4-dimethylamino-6-methoxy-1,3,4,5-tetrahydrobenz[c,d]indole]",,41 ± 4,70,1490,1.69 ± .07 NMoles/G,,,,,,4.68 ± .21 NMoles/G,7.15 ± .23 NMoles/G,
CC(=O)NC1Cc2c[nH]c3cccc(c23)C1=O (stereo not shown) [4-acetylamino-5-oxo derivative],,,,,,,,,,,,,one exception
